Measurements published in patent US11274083B2, “Substituted thiophenyl uracils, salts thereof and the use thereof as herbicidal agents” (Syngenta Crop Protection AG, priority 2017, dated 2022).
Where “and” joins values, the source holds several entries; their conditions need not be identical. Equal entries are not always repeated.

Assays:
Assay type in all cases: in vivo
[1] = test system: Abutilon theophrasti; test: Herbicidal action post-emergence, greenhouse pot test
Procedure, shortened: (§1)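 Sandy loam pots, greenhouse; one-leaf stage (2–3 wk post-sowing); WP/EC spray as aqueous suspension/emulsion + 0.5% additive, 600 L/ha; rate ≤80 g/ha; visual % efficacy vs untreated at ~3 wk.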

[2] = test system: Alopecurus myosuroides; test: as above; settings: scored visually after about 3 weeks vs untreated controls
Procedure, shortened: as §1

[3] = test system: Amaranthus retroflexus; test: as above
Procedure, shortened: as §1

[4] = test system: Avena fatua; test: as above; settings: application rate 80 g/ha
Procedure, shortened: as §1

[5] = test system: Echinochloa crus-galli; test: as above
Procedure, shortened: as §1

[6] = test system: Lolium rigidum; test: as above; settings: application rate 80 g/ha
Procedure, shortened: as §1

[7] = test system: Matricaria inodora; test: as above
Procedure, shortened: as §1

[8] = test system: Pharbitis purpurea; test: as above
Procedure, shortened: as §1

[9] = test system: Polygonum convolvulus; test: as above
Procedure, shortened: as §1

[10] = test system: Setaria viridis; test: as above
Procedure, shortened: as §1

[11] = test system: Stellaria media; test: as above
Procedure, shortened: as §1

[12] = test system: Veronica persica; test: as above
Procedure, shortened: as §1

[13] = test system: Viola tricolor; test: as above
Procedure, shortened: as §1

[14] = test system: Oryza sativa; test: Crop compatibility post-emergence, greenhouse pot test
Procedure, shortened: (§2)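 Visual % damage rating versus untreated plants (100% = plants dead, 0% = as control), taken about 3 weeks post-treatment. Spray applied to foliage at one-leaf stage (2–3 weeks from sowing) as WP/EC formulation in water plus 0.5% additive, 600 L/ha; greenhouse pots, sandy loam.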

[15] = test system: Triticum aestivum; test: as above
Procedure, shortened: as §2

[16] = test system: Zea mays; test: as above
Procedure, shortened: as §2

[17] = test system: Abutilon theophrasti; test: Herbicidal action pre-emergence, greenhouse pot test
Procedure, shortened: (§3)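 Pre-emergence soil-surface spray, WP/EC formulations in water plus 0.5% additive, 600 L/ha spray volume; rate 320 g/ha or lower. Greenhouse ~3 wk. Visual % efficacy vs untreated (100% = plants dead, 0% = like control).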

[18] = test system: Alopecurus myosuroides; test: as above
Procedure, shortened: as §3

[19] = test system: Amaranthus retroflexus; test: as above
Procedure, shortened: as §3

[20] = test system: Echinochloa crus-galli; test: as above
Procedure, shortened: as §3

[21] = test system: Hordeum murinum; test: as above; settings: application rate 320 g/ha
Procedure, shortened: as §3

[22] = test system: Lolium rigidum; test: as above; settings: application rate 320 g/ha
Procedure, shortened: as §3

[23] = test system: Pharbitis purpurea; test: as above
Procedure, shortened: as §3

[24] = test system: Polygonum convolvulus; test: as above
Procedure, shortened: as §3

[25] = test system: Setaria viridis; test: as above
Procedure, shortened: as §3

[26] = test system: Stellaria media; test: as above
Procedure, shortened: as §3

[27] = test system: Veronica persica; test: as above
Procedure, shortened: as §3

[28] = test system: Viola tricolor; test: as above
Procedure, shortened: as §3

[29] = test system: Matricaria inodora; test: as above
[30] = test system: Digitaria sanguinalis; test: Herbicidal action post-emergence, greenhouse pot test
[31] = test system: Digitaria sanguinalis; test: Herbicidal action pre-emergence, greenhouse pot test
Text: Seeds of mono- and dicotyledonous weeds and crop plants were laid out in plastic or organic plant pots and covered with soil. The compounds of the invention formulated in the form of wettable powders (WP) or as emulsion concentrates (EC) were then applied to the surface of the covering soil as an aqueous suspension or emulsion with addition of 0.5% additive at a water application rate equivalent to 600 L/ha. After the treatment, the pots were placed in a greenhouse and kept under good growth conditions for the test plants. After about 3 weeks, the efficacy of the preparations was scored visually as a percentage by comparison with untreated controls. For example, 100% efficacy=plants have died. 0% efficacy=like control plants.

[32] = test system: Lolium multiflorum; test: Herbicidal action post-emergence, greenhouse pot test; settings: application rate 80 g/ha
Procedure, shortened: as §1

[33] = test system: Cyperus esculentus; test: Herbicidal action pre-emergence, greenhouse pot test; settings: application rate 320 g/ha
Procedure, shortened: as §3

[34] = test system: Lolium multiflorum; test: as above; settings: application rate 80 g/ha, scored visually after about 3 weeks vs untreated controls
Procedure, shortened: as §3

[35] = test system: Hordeum murinum; test: Herbicidal action post-emergence, greenhouse pot test; settings: application rate 80 g/ha
Procedure, shortened: as §1

[36] = test system: Glycine max; test: Crop compatibility post-emergence, greenhouse pot test; settings: application rate 20 g/ha
Procedure, shortened: as §2

[37] = test system: Avena fatua; test: Herbicidal action pre-emergence, greenhouse pot test; settings: application rate 320 g/ha
Procedure, shortened: as §3

COC(=O)C(C)(C)COC(=O)C(C)Sc1cc(-n2c(=O)cc(C(F)(F)F)n(C)c2=O)c(F)cc1Cl (stereo not drawn) [I.1-32]
80%: Alopecurus myosuroides (Efficacy in %) ([2]; application rate 80 g/ha) | Avena fatua (Efficacy in %) [4]
20%: Oryza sativa (Efficacy in %) ([14]; application rate 20 g/ha) | Triticum aestivum (Efficacy in %) ([15]; application rate 5 g/ha) | Zea mays (Efficacy in %) ([16]; application rate 20 g/ha)
90%: Alopecurus myosuroides (Efficacy in %) ([18]; application rate 320 g/ha) | Hordeum murinum (Efficacy in %) [21] | Lolium rigidum (Efficacy in %) [22]
100%: Abutilon theophrasti (Efficacy in %) ([1]; application rate 80 g/ha) | Amaranthus retroflexus (Efficacy in %) ([3]; application rate 80 g/ha) | Echinochloa crus-galli (Efficacy in %) ([5]; application rate 80 g/ha) | Lolium rigidum (Efficacy in %) [6] | Matricaria inodora (Efficacy in %) ([7]; application rate 80 g/ha) | Pharbitis purpurea (Efficacy in %) ([8]; application rate 80 g/ha) | Polygonum convolvulus (Efficacy in %) ([9]; application rate 80 g/ha) | Setaria viridis (Efficacy in %) ([10]; application rate 80 g/ha) | Stellaria media (Efficacy in %) ([11]; application rate 80 g/ha) | Veronica persica (Efficacy in %) ([12]; application rate 80 g/ha) | Viola tricolor (Efficacy in %) ([13]; application rate 80 g/ha) | Abutilon theophrasti (Efficacy in %) ([17]; application rate 320 g/ha) | Amaranthus retroflexus (Efficacy in %) ([19]; application rate 320 g/ha) | Echinochloa crus-galli (Efficacy in %) ([20]; application rate 320 g/ha) | Pharbitis purpurea (Efficacy in %) ([23]; application rate 320 g/ha) | Polygonum convolvulus (Efficacy in %) ([24]; application rate 320 g/ha) | Setaria viridis (Efficacy in %) ([25]; application rate 320 g/ha) | Stellaria media (Efficacy in %) ([26]; application rate 320 g/ha) | Veronica persica (Efficacy in %) ([27]; application rate 320 g/ha) | Viola tricolor (Efficacy in %) ([28]; application rate 320 g/ha) | Matricaria inodora (Efficacy in %) ([29]; application rate 320 g/ha) | Digitaria sanguinalis (Efficacy in %) ([30]; application rate 80 g/ha) | Digitaria sanguinalis (Efficacy in %) ([31]; application rate 320 g/ha)

CCOC(=O)CCOC(=O)C(C)Sc1cc(-n2c(=O)cc(C(F)(F)F)n(C)c2=O)c(F)cc1Cl (stereo not drawn) [I.1-3]
80%: Avena fatua (Efficacy in %) [4]
100%: Abutilon theophrasti (Efficacy in %) ([1]; application rate 80 g/ha) | Alopecurus myosuroides (Efficacy in %) ([2]; application rate 80 g/ha) | Amaranthus retroflexus (Efficacy in %) ([3]; application rate 80 g/ha) | Echinochloa crus-galli (Efficacy in %) ([5]; application rate 80 g/ha) | Lolium multiflorum (Efficacy in %) [32] | Matricaria inodora (Efficacy in %) ([7]; application rate 80 g/ha) | Pharbitis purpurea (Efficacy in %) ([8]; application rate 80 g/ha) | Polygonum convolvulus (Efficacy in %) ([9]; application rate 80 g/ha) | Setaria viridis (Efficacy in %) ([10]; application rate 80 g/ha) | Stellaria media (Efficacy in %) ([11]; application rate 80 g/ha) | Veronica persica (Efficacy in %) ([12]; application rate 80 g/ha) | Viola tricolor (Efficacy in %) ([13]; application rate 80 g/ha) | Abutilon theophrasti (Efficacy in %) ([17]; application rate 320 g/ha) | Amaranthus retroflexus (Efficacy in %) ([19]; application rate 80 g/ha) | Cyperus esculentus (Efficacy in %) [33] | Echinochloa crus-galli (Efficacy in %) ([20]; application rate 320 g/ha) | Lolium multiflorum (Efficacy in %) [34] | Pharbitis purpurea (Efficacy in %) ([23]; application rate 320 g/ha) | Polygonum convolvulus (Efficacy in %) ([24]; application rate 320 g/ha) | Setaria viridis (Efficacy in %) ([25]; application rate 320 g/ha) | Stellaria media (Efficacy in %) ([26]; application rate 320 g/ha) | Veronica persica (Efficacy in %) ([27]; application rate 320 g/ha) | Viola tricolor (Efficacy in %) ([28]; application rate 320 g/ha) | Matricaria inodora (Efficacy in %) ([29]; application rate 320 g/ha)
10%: Triticum aestivum (Efficacy in %) ([15]; application rate 20 g/ha)
20%: Oryza sativa (Efficacy in %) ([14]; application rate 20 g/ha)
90%: Alopecurus myosuroides (Efficacy in %) ([18]; application rate 80 g/ha)

CC(Sc1cc(-n2c(=O)cc(C(F)(F)F)n(C)c2=O)c(F)cc1Cl)C(=O)OC1C(=O)OCC1(C)C (stereo not drawn) [I.1-142]
100%: Abutilon theophrasti (Efficacy in %) ([1]; application rate 20 g/ha) | Amaranthus retroflexus (Efficacy in %) ([3]; application rate 20 g/ha) | Echinochloa crus-galli (Efficacy in %) ([5]; application rate 20 g/ha) | Matricaria inodora (Efficacy in %) ([7]; application rate 20 g/ha) | Pharbitis purpurea (Efficacy in %) ([8]; application rate 20 g/ha) | Polygonum convolvulus (Efficacy in %) ([9]; application rate 20 g/ha) | Setaria viridis (Efficacy in %) ([10]; application rate 20 g/ha) | Stellaria media (Efficacy in %) ([11]; application rate 20 g/ha) | Veronica persica (Efficacy in %) ([12]; application rate 20 g/ha) | Viola tricolor (Efficacy in %) ([13]; application rate 20 g/ha) | Abutilon theophrasti (Efficacy in %) ([17]; application rate 80 g/ha) | Amaranthus retroflexus (Efficacy in %) ([19]; application rate 80 g/ha) | Polygonum convolvulus (Efficacy in %) ([24]; application rate 80 g/ha) | Setaria viridis (Efficacy in %) ([25]; application rate 80 g/ha) | Stellaria media (Efficacy in %) ([26]; application rate 80 g/ha) | Veronica persica (Efficacy in %) ([27]; application rate 80 g/ha) | Viola tricolor (Efficacy in %) ([28]; application rate 80 g/ha) | Matricaria inodora (Efficacy in %) ([29]; application rate 80 g/ha) | Digitaria sanguinalis (Efficacy in %) ([30]; application rate 20 g/ha) | Digitaria sanguinalis (Efficacy in %) ([31]; application rate 80 g/ha)
20%: Triticum aestivum (Efficacy in %) ([15]; application rate 20 g/ha)
90%: Echinochloa crus-galli (Efficacy in %) ([20]; application rate 80 g/ha) | Pharbitis purpurea (Efficacy in %) ([23]; application rate 80 g/ha)
80%: Alopecurus myosuroides (Efficacy in %) ([2]; application rate 20 g/ha)

CC(Sc1cc(-n2c(=O)cc(C(F)(F)F)n(C)c2=O)c(F)cc1Cl)C(=O)OC1CNC(=O)C1 (stereo not drawn) [I.1-254]
80%: Avena fatua (Efficacy in %) [4] | Cyperus esculentus (Efficacy in %) [33]
20%: Glycine max (Efficacy in %) [36]
90%: Stellaria media (Efficacy in %) ([11]; application rate 80 g/ha) | Veronica persica (Efficacy in %) ([12]; application rate 80 g/ha) | Avena fatua (Efficacy in %) [37] | Hordeum murinum (Efficacy in %) [21]
100% and 80%: Hordeum murinum (Efficacy in %) [35]
0%: Oryza sativa (Efficacy in %) ([14]; application rate 80 g/ha) | Zea mays (Efficacy in %) ([16]; application rate 80 g/ha)
100%: Abutilon theophrasti (Efficacy in %) ([1]; application rate 80 g/ha) | Amaranthus retroflexus (Efficacy in %) ([3]; application rate 80 g/ha) | Echinochloa crus-galli (Efficacy in %) ([5]; application rate 80 g/ha) | Matricaria inodora (Efficacy in %) ([7]; application rate 80 g/ha) | Pharbitis purpurea (Efficacy in %) ([8]; application rate 80 g/ha) | Polygonum convolvulus (Efficacy in %) ([9]; application rate 80 g/ha) | Setaria viridis (Efficacy in %) ([10]; application rate 80 g/ha) | Viola tricolor (Efficacy in %) ([13]; application rate 80 g/ha) | Abutilon theophrasti (Efficacy in %) ([17]; application rate 320 g/ha) | Alopecurus myosuroides (Efficacy in %) ([18]; application rate 320 g/ha) | Amaranthus retroflexus (Efficacy in %) ([19]; application rate 80 g/ha) | Echinochloa crus-galli (Efficacy in %) ([20]; application rate 320 g/ha) | Lolium rigidum (Efficacy in %) [22] | Pharbitis purpurea (Efficacy in %) ([23]; application rate 320 g/ha) | Polygonum convolvulus (Efficacy in %) ([24]; application rate 320 g/ha) | Setaria viridis (Efficacy in %) ([25]; application rate 320 g/ha) | Stellaria media (Efficacy in %) ([26]; application rate 320 g/ha) | Veronica persica (Efficacy in %) ([27]; application rate 320 g/ha) | Viola tricolor (Efficacy in %) ([28]; application rate 320 g/ha) | Matricaria inodora (Efficacy in %) ([29]; application rate 320 g/ha)
10%: Triticum aestivum (Efficacy in %) ([15]; application rate 20 g/ha)
